What all share (assay): HTS ATP-utilizing enzyme assay, off-chip mobility-shift (Caliper HTS 250)
What all share (assay type): biochemical
Common to all, as to conditions: test compound 10 μM, kinase listed = active (greater than six-sigma from the mean activity of inactive compounds)

The target of experiment [1] is T1, FLT-3 (Homo sapiens, UniProt P36888).
T1 sequence (P36888 27-993): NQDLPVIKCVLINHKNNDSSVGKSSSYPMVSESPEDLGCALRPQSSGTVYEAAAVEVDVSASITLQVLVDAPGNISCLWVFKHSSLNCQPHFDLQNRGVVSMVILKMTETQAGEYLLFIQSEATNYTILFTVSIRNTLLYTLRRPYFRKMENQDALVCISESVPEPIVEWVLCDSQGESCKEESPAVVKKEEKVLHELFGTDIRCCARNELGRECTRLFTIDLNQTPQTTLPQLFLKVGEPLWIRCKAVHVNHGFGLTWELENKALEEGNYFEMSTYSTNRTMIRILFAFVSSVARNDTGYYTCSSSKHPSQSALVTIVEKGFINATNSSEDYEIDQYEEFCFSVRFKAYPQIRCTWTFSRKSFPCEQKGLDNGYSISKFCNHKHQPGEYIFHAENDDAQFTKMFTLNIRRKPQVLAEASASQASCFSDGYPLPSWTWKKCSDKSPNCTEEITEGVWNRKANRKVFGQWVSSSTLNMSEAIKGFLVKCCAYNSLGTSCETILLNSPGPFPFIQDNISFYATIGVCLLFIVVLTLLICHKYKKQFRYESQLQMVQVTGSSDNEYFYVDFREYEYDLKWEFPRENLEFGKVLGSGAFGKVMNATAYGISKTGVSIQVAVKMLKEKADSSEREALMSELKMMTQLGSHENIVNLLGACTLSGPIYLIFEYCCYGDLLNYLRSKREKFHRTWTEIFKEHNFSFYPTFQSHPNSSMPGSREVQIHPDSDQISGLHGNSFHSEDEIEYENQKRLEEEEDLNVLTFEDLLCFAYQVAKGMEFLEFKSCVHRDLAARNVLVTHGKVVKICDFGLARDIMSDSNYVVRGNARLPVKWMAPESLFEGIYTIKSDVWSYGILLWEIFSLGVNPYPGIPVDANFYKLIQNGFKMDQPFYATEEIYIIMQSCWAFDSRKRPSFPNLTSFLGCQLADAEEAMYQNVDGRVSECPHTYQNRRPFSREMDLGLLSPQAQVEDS
The gist of the method: (§1)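 Inhibition is reported from a single 10 μM concentration. Kinase phosphorylates a peptide substrate over 2.5 hrs at 20° C. to 22° C. before EDTA termination. Potential hits are those beyond six-sigma statistical limits.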

Experiment [2] deals with ROCK2 (Homo sapiens, UniProt O75116). The gist of the method:
as §1

Experiment [3] concerns the target GSK3-α (Homo sapiens, UniProt P49840). The gist of the method:
as §1

Experiment [4] addresses CDK1/cyclin B (Homo sapiens, UniProt P06493). The gist of the method:
as §1

In experiment [5] the target is PDGFR-α (Homo sapiens, UniProt P16234). The gist of the method: as §1
Chain of PDGFR-α (P16234 24-1089): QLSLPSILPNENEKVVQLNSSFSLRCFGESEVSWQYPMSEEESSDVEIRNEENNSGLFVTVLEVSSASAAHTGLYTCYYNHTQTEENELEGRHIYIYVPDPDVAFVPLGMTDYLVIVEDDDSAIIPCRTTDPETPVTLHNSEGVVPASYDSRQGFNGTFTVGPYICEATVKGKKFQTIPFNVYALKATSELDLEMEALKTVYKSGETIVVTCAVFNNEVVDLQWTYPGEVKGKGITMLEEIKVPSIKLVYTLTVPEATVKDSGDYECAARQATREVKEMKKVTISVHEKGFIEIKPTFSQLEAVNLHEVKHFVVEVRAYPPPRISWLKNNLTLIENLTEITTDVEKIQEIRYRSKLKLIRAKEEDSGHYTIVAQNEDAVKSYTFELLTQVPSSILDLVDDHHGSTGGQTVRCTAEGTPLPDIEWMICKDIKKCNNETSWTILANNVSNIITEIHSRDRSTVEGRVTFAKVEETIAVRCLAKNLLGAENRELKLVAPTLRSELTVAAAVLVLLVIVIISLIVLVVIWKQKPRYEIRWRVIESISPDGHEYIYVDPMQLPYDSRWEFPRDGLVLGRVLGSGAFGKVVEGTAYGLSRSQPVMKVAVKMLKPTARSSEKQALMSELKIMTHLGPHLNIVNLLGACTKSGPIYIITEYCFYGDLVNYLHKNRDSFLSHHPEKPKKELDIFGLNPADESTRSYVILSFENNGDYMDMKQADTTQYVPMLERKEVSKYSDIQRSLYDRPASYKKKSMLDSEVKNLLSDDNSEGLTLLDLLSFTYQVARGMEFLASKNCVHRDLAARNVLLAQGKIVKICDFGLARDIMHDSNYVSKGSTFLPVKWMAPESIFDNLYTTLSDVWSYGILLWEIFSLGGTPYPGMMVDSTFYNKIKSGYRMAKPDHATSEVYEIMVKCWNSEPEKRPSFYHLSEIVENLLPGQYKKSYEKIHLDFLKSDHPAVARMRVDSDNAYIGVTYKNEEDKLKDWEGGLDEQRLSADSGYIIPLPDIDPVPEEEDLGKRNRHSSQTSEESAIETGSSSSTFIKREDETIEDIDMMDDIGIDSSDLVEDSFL
Experiment [6] addresses LYNA (Homo sapiens, UniProt P07948). The gist of the method: as §1
Experiment [7] deals with SYK (Homo sapiens, UniProt P43405). The gist of the method:
as §1

For experiment [8], the target named is CHEK2 (Homo sapiens, UniProt O96017). The gist of the method:
as §1

The target of experiment [9] is AKT3 (Homo sapiens, UniProt Q9Y243). The gist of the method:
as §1

Chain of ROCK2 (O75116 whole entry): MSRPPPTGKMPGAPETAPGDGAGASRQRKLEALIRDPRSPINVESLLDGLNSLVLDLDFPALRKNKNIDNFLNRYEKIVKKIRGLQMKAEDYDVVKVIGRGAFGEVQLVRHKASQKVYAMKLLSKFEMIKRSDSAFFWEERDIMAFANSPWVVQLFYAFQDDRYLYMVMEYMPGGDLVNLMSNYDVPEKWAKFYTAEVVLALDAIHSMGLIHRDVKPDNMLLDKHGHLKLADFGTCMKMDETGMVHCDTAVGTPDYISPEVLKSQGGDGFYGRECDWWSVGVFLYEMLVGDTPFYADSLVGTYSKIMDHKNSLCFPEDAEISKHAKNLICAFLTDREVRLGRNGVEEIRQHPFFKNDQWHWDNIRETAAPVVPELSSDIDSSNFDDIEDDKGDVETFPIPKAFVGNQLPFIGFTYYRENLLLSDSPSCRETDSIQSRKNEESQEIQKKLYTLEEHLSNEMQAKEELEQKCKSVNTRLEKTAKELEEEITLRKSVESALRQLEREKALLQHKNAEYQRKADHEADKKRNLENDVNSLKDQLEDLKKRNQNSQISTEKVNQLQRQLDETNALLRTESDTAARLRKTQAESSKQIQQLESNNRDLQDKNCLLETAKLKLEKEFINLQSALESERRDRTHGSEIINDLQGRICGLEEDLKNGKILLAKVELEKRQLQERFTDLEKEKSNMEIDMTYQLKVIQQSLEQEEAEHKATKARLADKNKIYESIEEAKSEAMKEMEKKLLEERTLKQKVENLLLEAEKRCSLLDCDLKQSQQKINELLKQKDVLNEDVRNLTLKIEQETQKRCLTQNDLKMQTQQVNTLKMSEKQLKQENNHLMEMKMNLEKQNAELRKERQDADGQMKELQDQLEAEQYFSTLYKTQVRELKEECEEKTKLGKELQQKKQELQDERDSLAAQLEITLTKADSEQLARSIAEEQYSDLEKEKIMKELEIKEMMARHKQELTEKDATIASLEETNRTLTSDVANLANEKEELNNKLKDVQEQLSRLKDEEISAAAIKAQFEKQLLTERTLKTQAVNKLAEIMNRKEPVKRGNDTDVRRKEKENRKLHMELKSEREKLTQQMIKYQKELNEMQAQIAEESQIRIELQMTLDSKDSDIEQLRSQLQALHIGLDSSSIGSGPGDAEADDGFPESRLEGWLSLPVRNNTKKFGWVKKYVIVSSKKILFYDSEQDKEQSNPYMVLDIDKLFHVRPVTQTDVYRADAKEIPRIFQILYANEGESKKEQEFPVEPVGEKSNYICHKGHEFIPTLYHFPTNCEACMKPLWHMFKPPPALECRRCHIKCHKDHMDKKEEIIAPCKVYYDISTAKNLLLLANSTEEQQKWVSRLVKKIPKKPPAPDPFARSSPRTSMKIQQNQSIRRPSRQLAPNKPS
Chain of CDK1/cyclin B (P06493 whole entry): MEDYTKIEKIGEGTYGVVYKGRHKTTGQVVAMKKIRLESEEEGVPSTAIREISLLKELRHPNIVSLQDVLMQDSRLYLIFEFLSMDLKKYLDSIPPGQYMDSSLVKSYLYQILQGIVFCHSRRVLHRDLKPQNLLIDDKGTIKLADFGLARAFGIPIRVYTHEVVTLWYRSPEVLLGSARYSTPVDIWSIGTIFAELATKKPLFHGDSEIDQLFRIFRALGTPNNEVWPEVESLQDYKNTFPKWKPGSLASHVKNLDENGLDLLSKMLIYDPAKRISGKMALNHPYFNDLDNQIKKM
Chain of CDK1/cyclin B (P14635 whole entry partner): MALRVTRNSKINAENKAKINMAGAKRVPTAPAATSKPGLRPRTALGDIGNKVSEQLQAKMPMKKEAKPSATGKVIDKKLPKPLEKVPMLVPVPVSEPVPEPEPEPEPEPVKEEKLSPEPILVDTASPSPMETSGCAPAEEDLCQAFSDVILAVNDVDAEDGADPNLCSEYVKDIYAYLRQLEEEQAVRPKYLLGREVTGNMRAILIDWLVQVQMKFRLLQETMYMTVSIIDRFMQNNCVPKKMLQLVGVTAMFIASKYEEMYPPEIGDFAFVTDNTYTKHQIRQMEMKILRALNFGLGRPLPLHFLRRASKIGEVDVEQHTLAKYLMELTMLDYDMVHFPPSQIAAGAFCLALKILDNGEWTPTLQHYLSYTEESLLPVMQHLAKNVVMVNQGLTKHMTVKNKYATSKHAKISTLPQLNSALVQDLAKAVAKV
Chain of LYNA (P07948 whole entry): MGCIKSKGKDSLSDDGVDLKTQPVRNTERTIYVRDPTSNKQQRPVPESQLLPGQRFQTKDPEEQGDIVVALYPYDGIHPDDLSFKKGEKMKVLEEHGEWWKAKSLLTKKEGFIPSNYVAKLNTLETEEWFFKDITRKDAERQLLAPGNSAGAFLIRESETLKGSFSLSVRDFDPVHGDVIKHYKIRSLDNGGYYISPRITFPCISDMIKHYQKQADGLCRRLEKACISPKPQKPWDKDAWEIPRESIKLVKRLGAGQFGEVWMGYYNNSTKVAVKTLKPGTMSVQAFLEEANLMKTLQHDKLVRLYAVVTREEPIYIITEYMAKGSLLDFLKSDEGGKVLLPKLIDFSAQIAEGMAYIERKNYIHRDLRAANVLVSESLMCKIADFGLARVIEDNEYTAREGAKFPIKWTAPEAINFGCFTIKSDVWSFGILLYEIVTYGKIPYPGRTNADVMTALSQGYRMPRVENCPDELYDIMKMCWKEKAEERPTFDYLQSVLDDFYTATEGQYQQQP
Chain of AKT3 (Q9Y243 whole entry): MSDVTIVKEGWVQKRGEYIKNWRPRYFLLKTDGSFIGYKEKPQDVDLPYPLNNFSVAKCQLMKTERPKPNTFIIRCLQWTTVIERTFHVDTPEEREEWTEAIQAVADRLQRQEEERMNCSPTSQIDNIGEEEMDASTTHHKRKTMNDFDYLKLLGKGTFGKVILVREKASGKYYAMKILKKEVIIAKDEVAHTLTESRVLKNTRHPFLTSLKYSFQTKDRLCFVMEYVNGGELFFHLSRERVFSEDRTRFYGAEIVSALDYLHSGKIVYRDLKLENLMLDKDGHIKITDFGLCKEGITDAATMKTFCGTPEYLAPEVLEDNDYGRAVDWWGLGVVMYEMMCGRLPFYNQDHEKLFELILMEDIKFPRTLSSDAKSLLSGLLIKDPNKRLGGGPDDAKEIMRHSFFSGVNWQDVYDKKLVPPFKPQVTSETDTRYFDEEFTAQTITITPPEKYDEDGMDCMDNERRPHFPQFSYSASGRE
Chain of GSK3-α (P49840 whole entry): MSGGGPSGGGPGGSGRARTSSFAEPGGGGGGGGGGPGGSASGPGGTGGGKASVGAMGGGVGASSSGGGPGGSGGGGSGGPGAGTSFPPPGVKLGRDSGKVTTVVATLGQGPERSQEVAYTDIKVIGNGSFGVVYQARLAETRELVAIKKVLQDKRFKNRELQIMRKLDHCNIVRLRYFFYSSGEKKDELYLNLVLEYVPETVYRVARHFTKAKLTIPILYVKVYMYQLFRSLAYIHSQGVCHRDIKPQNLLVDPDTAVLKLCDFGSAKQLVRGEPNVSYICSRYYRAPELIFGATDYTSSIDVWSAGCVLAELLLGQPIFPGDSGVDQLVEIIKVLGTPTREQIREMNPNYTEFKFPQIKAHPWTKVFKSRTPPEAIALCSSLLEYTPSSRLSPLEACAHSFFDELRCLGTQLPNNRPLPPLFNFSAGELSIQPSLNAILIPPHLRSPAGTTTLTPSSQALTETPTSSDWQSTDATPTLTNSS

Turning to `CN1CCN(c2ccc(Nc3ccnc4ccc(-c5ccc(O)cc5)cc34)cc2)CC1` [4-(4-(4-(4-methylpiperazin-1-yl)phenylamino)quinolin-6-yl)phenol], the results for the Activity entry in experiment [1] and in [2] were “FLT-3” and “ROCK2”, respectively.

`CN1CCN(c2ccc(Nc3ccnc4ccc(-c5ccc(F)cc5)cc34)cc2)CC1` [6-(4-fluorophenyl)-N-(4-(4-methylpiperazin-1-yl)phenyl)quinolin-4-amine]: the Activity entry in experiment [3] is given as “GSK3-α”.

For `COc1ccc(-c2ccc3nccc(Nc4ccc(N5CCNCC5)cc4)c3c2)cc1` [6-(4-methoxyphenyl)-N-(4-(piperazin-1-yl)phenyl)quinolin-4-amine], the Activity entry in experiment [1] is reported as “FLT-3”; in experiment [4], “CDK1/cyclin B”.

Consider `COc1ccc(-c2ccc3nccc(N(C)c4ccc(N5CCN(C)CC5)cc4)c3c2)cc1` [6-(4-methoxyphenyl)-N-methyl-N-(4-(4-methylpiperazin-1-yl)phenyl)quinolin-4-amine], for which the figures for the Activity entry in experiment [1] and in experiment [5] were “FLT-3” and “PDGFR-α”, respectively.

For `c1ccc(-c2ccc3nccc(Nc4ccc(N5CCNCC5)cc4)c3c2)cc1` [6-phenyl-N-(4-(piperazin-1-yl)phenyl)quinolin-4-amine], the values for the Activity result in experiment [1], in [5] and in experiment [6] were “FLT-3”, “PDGFR-α” and “LYNA”, respectively.

On to `CN1CCN(c2ccc(Nc3ccnc4ccc(-c5cccc6ccccc56)cc34)cc2)CC1` [N-(4-(4-methylpiperazin-1-yl)phenyl)-6-(naphthalen-1-yl)quinolin-4-amine], for which the Activity result is “SYK” in [7]; “CHEK2” in [8]; “AKT3” in [9]; “CDK1/cyclin B” in experiment [4]; “LYNA” in [6].

Turning to `CN1CCN(c2ccc(Nc3ccnc4ccc(-c5ccc6ccccc6c5)cc34)cc2)CC1` [N-(4-(4-methylpiperazin-1-yl)phenyl)-6-(naphthalen-2-yl)quinolin-4-amine], the Activity result was “SYK” in [7] and “CHEK2” in experiment [8].

Regarding `CN1CCN(c2ccc(Nc3ccnc4ccc(-c5ccncc5)cc34)cc2)CC1` [N-(4-(4-methylpiperazin-1-yl)phenyl)-6-(pyridin-4-yl)quinolin-4-amine], the Activity result is “FLT-3” in experiment [1], “AKT3” in experiment [9], “GSK-3-α” in experiment [3] and “ROCK2” in experiment [2].
